For two molecules, inhibition results are on record in ChEMBL document CHEMBL5653615 (J Biol Chem, 2013).

For assay [1], the target named is Receptor tyrosine-protein kinase erbB-4 (Homo sapiens) (UniProt Q15303). The assay is described as follows: Inhibition of human ERBB4 at 18.6 nM by HotSpot assay relative to control.
Assay [2] addresses T1, Serine/threonine-protein kinase Nek2 (Homo sapiens) (UniProt P51955).
T1 sequence (whole entry): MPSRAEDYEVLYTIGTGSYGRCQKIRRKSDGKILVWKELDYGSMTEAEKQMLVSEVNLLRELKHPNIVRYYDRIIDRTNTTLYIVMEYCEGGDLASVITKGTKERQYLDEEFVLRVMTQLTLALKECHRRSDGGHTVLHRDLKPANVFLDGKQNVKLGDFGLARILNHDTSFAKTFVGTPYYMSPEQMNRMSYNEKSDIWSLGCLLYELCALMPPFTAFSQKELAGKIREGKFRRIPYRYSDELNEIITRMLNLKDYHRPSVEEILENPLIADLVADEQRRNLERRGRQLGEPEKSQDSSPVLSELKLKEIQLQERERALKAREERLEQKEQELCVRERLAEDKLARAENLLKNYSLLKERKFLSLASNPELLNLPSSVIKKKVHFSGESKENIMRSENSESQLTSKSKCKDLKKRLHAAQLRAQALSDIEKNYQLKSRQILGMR
The assay can be described thus: Inhibition of human NEK2 at 18.6 nM by HotSpot assay relative to control.

Assay [3] concerns the target T2, Aurora kinase A (Homo sapiens) (UniProt O14965).
T2 sequence (whole entry): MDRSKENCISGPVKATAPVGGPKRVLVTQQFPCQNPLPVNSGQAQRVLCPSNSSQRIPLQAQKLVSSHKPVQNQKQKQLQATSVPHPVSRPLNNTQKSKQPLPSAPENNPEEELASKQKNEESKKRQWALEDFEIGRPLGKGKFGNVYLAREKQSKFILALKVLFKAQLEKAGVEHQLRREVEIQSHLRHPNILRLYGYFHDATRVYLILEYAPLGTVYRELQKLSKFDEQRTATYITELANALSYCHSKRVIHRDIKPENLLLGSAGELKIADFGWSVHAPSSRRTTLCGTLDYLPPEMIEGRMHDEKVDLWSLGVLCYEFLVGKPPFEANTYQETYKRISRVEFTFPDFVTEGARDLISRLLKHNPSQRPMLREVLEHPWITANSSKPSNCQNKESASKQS
The assay can be described thus: Inhibition of human Aurora A at 18.6 nM by HotSpot assay relative to control.

For assay [4], the target named is T3, Interleukin-1 receptor-associated kinase 4 (Homo sapiens) (UniProt Q9NWZ3).
T3 sequence (whole entry): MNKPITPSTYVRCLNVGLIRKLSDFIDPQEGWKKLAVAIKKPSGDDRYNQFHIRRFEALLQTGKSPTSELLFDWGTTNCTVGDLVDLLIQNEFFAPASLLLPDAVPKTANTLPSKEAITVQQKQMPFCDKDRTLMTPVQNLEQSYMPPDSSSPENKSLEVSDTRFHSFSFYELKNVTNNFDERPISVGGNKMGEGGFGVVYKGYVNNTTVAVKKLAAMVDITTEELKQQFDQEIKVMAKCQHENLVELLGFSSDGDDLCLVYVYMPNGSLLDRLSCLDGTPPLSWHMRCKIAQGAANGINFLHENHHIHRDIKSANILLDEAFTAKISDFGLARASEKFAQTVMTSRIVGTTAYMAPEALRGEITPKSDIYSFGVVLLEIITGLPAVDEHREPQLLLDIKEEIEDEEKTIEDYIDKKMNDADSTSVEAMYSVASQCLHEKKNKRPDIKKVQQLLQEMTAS
The assay can be described thus: Inhibition of human IRAK4 at 18.6 nM by HotSpot assay relative to control.

For assay [5], the target named is Calcium/calmodulin-dependent protein kinase type II subunit beta (Homo sapiens) (UniProt Q13554). The assay can be described thus: Inhibition of human CAMK2b at 18.6 nM by HotSpot assay relative to control.
Chain of Calcium/calmodulin-dependent protein kinase type II subunit beta (Homo sapiens) (Q13554 whole entry): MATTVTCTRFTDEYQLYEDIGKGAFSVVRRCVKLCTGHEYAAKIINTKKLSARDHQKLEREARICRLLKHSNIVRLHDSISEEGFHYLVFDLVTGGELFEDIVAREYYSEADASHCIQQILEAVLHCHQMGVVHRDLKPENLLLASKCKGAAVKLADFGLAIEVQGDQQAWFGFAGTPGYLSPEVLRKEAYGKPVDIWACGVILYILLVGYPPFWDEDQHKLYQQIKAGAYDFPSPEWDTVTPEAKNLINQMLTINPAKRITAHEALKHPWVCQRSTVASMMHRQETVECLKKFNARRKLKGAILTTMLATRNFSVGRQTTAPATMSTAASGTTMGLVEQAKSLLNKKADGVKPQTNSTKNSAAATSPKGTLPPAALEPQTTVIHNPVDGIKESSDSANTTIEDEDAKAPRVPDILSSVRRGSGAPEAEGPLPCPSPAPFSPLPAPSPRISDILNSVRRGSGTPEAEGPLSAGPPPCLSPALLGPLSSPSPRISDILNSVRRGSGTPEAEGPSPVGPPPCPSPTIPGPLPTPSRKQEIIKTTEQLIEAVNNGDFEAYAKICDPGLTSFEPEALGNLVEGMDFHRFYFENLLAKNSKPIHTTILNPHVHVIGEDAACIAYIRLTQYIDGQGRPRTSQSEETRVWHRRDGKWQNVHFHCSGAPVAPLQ
Assay [6] concerns the target Wee1-like protein kinase (Homo sapiens) (UniProt P30291). The assay is described as follows: Inhibition of human WEE1 at 18.6 nM by HotSpot assay relative to control.
The target in assay [7] is Fibroblast growth factor receptor 4 (Homo sapiens) (UniProt P22455). The assay can be described thus: Inhibition of human FGFR4 at 1.82 nM by HotSpot assay relative to control.
For assay [8], the target named is Ribosomal protein S6 kinase alpha-5 (Homo sapiens) (UniProt O75582). The assay can be described thus: Inhibition of human RPS6KA5 at 1.82 nM by HotSpot assay relative to control.
Chain of Ribosomal protein S6 kinase alpha-5 (Homo sapiens) (O75582 whole entry, looked up): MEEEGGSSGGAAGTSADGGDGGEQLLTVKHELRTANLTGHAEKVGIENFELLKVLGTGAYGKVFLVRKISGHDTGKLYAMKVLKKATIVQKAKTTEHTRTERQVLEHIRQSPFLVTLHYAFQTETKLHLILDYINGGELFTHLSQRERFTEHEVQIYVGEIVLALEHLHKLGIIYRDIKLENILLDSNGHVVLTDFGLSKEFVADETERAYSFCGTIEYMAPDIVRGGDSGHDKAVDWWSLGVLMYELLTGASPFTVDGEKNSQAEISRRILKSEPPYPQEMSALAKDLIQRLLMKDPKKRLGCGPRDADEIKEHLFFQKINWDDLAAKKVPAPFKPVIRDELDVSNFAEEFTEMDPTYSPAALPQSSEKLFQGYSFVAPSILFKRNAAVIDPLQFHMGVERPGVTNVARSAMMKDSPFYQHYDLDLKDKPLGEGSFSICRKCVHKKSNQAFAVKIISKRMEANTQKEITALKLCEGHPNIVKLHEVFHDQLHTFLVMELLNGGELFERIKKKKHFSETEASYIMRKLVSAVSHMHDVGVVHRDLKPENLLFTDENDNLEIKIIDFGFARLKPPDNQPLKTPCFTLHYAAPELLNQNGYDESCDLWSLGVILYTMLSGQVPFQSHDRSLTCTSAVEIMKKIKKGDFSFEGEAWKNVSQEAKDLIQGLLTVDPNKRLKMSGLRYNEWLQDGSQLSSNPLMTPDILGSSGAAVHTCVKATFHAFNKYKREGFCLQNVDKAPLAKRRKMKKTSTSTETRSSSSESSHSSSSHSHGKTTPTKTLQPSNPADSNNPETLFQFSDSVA
Assay [9] addresses T4, Protein kinase C epsilon type (Homo sapiens) (UniProt Q02156).
T4 sequence (whole entry): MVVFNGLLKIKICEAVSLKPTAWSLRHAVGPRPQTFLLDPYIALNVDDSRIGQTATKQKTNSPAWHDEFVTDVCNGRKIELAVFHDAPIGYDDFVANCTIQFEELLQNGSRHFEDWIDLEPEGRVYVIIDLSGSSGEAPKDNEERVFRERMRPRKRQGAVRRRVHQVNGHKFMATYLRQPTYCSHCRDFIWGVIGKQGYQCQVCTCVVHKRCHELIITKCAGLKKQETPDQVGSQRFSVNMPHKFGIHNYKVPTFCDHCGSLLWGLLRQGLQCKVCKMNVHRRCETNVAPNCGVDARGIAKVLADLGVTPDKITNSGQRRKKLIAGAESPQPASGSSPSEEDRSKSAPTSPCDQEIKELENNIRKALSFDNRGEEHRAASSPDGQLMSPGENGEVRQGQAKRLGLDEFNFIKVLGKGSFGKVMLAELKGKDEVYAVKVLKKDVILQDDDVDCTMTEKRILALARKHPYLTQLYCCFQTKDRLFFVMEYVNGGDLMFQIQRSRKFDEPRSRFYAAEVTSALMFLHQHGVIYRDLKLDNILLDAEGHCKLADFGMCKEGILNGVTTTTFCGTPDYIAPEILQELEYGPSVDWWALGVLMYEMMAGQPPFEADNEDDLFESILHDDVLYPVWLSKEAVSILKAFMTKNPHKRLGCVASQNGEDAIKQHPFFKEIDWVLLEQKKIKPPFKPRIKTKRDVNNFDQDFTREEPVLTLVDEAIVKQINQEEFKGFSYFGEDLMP
The assay is described as follows: Inhibition of human PKCepsilon at 1.82 nM by HotSpot assay relative to control.

Assay [10] concerns the target Mitogen-activated protein kinase 11 (Homo sapiens) (UniProt Q15759). The assay is described as follows: Inhibition of human MAPK11 at 1.82 nM by HotSpot assay relative to control.
In assay [11] the target is Activated CDC42 kinase 1 (Homo sapiens) (UniProt Q07912). The assay can be described thus: Inhibition of human ACK1 at 1.82 nM by HotSpot assay relative to control.
Chain of Activated CDC42 kinase 1 (Homo sapiens) (Q07912 whole entry, looked up): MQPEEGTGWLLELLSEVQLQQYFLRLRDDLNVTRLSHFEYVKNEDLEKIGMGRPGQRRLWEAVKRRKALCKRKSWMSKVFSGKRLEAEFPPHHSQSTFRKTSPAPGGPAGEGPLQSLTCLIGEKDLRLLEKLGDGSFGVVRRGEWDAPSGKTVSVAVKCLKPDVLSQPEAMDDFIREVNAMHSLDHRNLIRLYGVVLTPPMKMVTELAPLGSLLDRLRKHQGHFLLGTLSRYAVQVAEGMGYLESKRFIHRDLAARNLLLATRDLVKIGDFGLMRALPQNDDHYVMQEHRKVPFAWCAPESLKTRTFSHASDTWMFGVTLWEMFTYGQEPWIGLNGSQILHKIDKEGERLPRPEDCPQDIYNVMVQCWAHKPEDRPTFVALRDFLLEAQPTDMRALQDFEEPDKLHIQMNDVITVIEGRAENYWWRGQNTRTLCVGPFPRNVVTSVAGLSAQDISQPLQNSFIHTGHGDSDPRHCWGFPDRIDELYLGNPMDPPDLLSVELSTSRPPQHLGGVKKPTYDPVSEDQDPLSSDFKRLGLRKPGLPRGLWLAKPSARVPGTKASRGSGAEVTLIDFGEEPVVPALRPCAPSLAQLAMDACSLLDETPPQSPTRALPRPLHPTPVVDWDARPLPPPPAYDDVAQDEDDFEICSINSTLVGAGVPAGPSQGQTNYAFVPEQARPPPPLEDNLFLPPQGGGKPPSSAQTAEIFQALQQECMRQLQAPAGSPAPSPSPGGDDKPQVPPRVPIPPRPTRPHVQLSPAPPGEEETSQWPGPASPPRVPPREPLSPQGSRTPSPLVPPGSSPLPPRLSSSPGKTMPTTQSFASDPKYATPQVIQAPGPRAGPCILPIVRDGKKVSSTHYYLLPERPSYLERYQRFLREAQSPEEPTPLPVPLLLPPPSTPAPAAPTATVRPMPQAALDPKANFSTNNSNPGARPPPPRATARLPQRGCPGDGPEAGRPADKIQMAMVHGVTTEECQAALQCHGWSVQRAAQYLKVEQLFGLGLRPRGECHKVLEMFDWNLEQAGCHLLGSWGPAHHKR

Chain of Mitogen-activated protein kinase 11 (Homo sapiens) (Q15759 whole entry): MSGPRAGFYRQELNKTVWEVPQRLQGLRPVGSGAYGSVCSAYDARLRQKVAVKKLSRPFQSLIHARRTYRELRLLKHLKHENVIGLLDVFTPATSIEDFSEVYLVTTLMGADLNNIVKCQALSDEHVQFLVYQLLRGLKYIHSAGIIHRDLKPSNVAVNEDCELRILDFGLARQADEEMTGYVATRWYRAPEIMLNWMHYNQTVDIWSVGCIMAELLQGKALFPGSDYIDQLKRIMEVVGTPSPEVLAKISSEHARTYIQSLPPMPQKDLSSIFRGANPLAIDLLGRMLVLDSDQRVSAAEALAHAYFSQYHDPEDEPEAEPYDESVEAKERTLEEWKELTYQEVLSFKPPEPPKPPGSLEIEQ
Chain of Receptor tyrosine-protein kinase erbB-4 (Homo sapiens) (Q15303 whole entry): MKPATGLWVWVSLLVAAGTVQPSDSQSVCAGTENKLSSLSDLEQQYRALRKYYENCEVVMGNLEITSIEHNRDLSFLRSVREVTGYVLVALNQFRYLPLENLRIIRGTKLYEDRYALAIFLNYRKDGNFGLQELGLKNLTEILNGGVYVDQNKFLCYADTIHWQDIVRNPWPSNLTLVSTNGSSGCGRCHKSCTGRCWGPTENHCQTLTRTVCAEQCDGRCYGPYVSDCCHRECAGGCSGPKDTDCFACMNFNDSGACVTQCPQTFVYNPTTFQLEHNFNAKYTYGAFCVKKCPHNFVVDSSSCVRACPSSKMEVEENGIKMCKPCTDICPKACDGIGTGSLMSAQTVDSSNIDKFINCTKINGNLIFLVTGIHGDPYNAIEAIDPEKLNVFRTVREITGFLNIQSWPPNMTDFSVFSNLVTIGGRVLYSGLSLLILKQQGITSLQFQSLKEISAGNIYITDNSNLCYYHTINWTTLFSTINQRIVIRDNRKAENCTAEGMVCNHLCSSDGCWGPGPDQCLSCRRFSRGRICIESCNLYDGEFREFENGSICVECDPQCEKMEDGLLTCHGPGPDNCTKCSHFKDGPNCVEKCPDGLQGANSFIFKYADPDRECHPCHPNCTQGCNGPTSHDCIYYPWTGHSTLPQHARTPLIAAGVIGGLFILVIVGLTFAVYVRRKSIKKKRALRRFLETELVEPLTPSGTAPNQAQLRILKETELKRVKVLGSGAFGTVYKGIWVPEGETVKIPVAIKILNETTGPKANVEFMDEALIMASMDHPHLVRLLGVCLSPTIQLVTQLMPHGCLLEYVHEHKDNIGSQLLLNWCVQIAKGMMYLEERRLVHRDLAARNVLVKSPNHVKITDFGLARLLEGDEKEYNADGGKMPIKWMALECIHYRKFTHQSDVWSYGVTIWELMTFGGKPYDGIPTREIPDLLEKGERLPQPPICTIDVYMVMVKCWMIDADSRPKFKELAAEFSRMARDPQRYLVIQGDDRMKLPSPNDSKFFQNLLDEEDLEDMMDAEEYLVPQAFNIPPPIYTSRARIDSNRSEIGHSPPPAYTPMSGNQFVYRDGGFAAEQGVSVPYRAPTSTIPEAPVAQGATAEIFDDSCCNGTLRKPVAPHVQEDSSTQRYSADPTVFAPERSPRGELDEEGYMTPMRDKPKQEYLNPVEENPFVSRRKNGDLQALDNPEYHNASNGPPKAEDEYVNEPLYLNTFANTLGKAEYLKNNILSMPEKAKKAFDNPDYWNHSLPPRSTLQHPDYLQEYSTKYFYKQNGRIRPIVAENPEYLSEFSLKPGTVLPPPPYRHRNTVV
Chain of Wee1-like protein kinase (Homo sapiens) (P30291 whole entry, looked up): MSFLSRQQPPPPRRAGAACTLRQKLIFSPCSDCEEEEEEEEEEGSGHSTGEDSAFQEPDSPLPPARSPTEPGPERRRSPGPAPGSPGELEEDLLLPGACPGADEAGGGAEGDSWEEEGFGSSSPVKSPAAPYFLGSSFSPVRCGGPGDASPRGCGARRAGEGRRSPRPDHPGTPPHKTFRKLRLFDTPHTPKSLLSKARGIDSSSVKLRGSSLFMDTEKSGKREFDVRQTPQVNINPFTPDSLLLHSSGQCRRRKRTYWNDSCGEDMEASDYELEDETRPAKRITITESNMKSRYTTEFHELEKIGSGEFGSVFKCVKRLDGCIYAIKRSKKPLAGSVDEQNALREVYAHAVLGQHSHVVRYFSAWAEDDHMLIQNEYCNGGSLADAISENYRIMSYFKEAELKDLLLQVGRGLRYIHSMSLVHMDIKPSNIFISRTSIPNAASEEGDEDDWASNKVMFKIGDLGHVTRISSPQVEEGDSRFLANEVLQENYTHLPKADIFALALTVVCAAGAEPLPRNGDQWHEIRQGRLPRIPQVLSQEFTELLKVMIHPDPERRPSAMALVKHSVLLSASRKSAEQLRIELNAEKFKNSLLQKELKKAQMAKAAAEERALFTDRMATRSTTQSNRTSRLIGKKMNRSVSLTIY

In the case of `C[C@]1(O)C[C@@H](c2nc(-c3ccc4ccc(-c5ccccc5)nc4c3)c3c(N)nccn32)C1`, the inhibition was 2.92% in [1]; 4.82% in assay [2]; -2.4% in assay [3]; -2.53% in assay [4]; -1.75% in assay [5]; 7.34% in [6].
As to `C[C@@]1(C(=O)Nc2ccc(F)nc2)CCCN1c1nc(Nc2cc(C3CC3)n[nH]2)c2cccn2n1`, the inhibition in [7] was 6.74%; in assay [8] it was -3.72%; in assay [9], -6.93%; in [10] it was -1.71%; in assay [11], 3.55%.

For orientation: inhibition means the relative decrease from the control value, in per cent.
